In patent US4371540A, “Nitroimidazoles of low toxicity and high activity as radiosensitizers of hypoxic tumor cells” (priority 1980, dated 1983):
Converted amounts (≈) assume the structure as drawn.

Columns and labels:
[1] = 1-electron reduction potential / electron affinity; type: physicochemical; settings: for E7^1 (1-electron reduction potential): Table 1; for electron affinity relative to MIS: in words
[2] = test system: BALB/c mice; settings: for acute toxicity relative to MIS: from LD50 data of Table 1
[3] = test system: hypoxic tumor cells; settings: cited from earlier work
[4] = accelerated rotarod neurotoxicity test; settings: for Dose to Give Equivalent Neurotoxicity Relative to MIS: daily dosing, MIS = 1; for factor by which less neurotoxic than MIS: at least a factor of
Excerpt: Performance and toxicity determinations were made after four-and-one-half weeks of daily dosing.

[5] = peak tumor concentration in dogs bearing spontaneous tumors; settings: for Mean Peak Tumor Concentration: dogs with spontaneous tumors, i.v. bolus 0.5 micromoles/g
[6] = plasma pharmacokinetics and neural tissue exposure (AUC) in dogs; settings: for AUC / clearance: dog; for AUC: 500 umol/kg; for AUC PNS: peripheral nerve
Description: (§1) The imidazoles were formulated in a 0.9% sodium chloride solution at a concentration of 5%. Doses of 0.25-1.0 mmole/kg of each compound were administered to normal adult, male cross-bred dogs and subsequent plasma concentrations were monitored by high performance liquid chromatography. Samples of brain, cerebrospinal fluid (CSF), and peripheral nerve (PNS) were removed for assay from similarly dosed dogs over the same test period.

[7] = in vivo; settings: mouse
[8] = physchem; settings: octanol:water
[9] = physchem; settings: 0.9% saline
[10] = method of Fujita et al
[11] = for tumor/brain ratio relative to MIS: i.p., EMT6 tumor bearing mice, FIGS. 1 and 2; for crossing of the blood/brain barrier relative to MIS: in words
Description: Each test compound was formulated immediately before administration to the animals in Hanks' balanced salt solution at a concentration such that the volume injected intraperitoneally was 0.05 ml per g body weight.
The mice were injected intraperitoneally and at various times were bled by cardiac puncture under anesthesia. Plasma was obtained by centrifugation and stored frozen at -20° C. The tumor and whole brain were taken immediately after cardiac puncture and stored frozen at -20° C.
The brain/plasma ratio is the mean value from all the mice for each compound.

[12] = in vivo; settings: dog
Description: as §1

[13] = test system: EMT6 tumor cells; assay: radiosensitization of EMT6 tumor cells; settings: in words
[14] = test system: tumors in vivo; settings: tumors in vivo and cells; Brown and Lee, 1979; cited from earlier work
[15] = plasma concentration after oral administration of acetate esters versus parent drugs; type: in vivo; settings: mice, 4 or 5 mmole/kg
[16] = dogs, standardized for 0.5 mmole/kg

COCC(O)Cn1ccnc1[N+](=O)[O-] (stereo not shown) [MIS, misonidazole, reference compound]
E7^1 (1-electron reduction potential) [1]: -389 mV | Acute LD50 ([2]; BALB/c mice (20-25 g)): 1.8(1.3-2.6) mg/g | radiosensitization at recommended dose ([3]; conventional multifraction radiotherapy regime): suboptimal radiosensitization | radiosensitizing activity relative to metronidazole ([3]; in words): greater radiosensitizing activity of the two compounds | clinical limitation by toxicity ([3]; man, in words): limited by its neurotoxicity | recommended maximum total dose (neurotoxicity) ([3]; man, per body surface, Dische et al): ≤ 12 g/m^2 | Dose to Give Equivalent Neurotoxicity Relative to MIS ([4]; four-and-one-half weeks): 1 | Mean Peak Tumor Concentration [5]: 0.56 μ moles.g^-1 | AUC ([6]; cerebrospinal fluid): 2660 µM·h | clearance ([6]; plasma): 1.5 mL/min/kg | AUC ([6]; plasma): 3680 µM·h | AUC PNS [6, 16]: 2.25 μ moles.hr.ml^ -1 or g^-1 | AUC Brain [6, 16]: 2.32 μ moles.hr.ml^ -1 or g^-1

C[S+]([O-])CCn1ccnc1[N+](=O)[O-] (stereo not shown) [Compound 7]
LD50 [7]: ~2000 mg/kg | logP [8]: -1.22

COC(=O)Cn1ccnc1[N+](=O)[O-] [methyl 2-nitroimidazole-1-acetate]
solubility [9]: 13.6 mg/mL (≈ 73.5 mM)

O=[N+]([O-])c1nccn1CC(O)CCl (stereo not shown) [Compound 1]
E7^1 (1-electron reduction potential) [1]: -384 mV | LD50 [7]: ~180 mg/kg | logP [8]: 0.176

O=C(Cn1ccnc1[N+](=O)[O-])NCCO [SR-2508, N-(2-hydroxyethyl)-2-(2-nitro-1-imidazolyl)acetamide]
E7^1 (1-electron reduction potential) [1]: -388 mV | electron affinity relative to MIS [1]: similar | octanol:water partition coefficient [10]: 0.046 | acute toxicity relative to MIS [2]: about three to five times less | tumor/brain ratio relative to MIS [11]: an order of magnitude greater than MIS | crossing of the blood/brain barrier relative to MIS [11]: to a lower degree than does MIS | LD50 [7]: 4900 mg/kg | clearance [12]: 3.5 mL/min/kg | logP [8]: -1.34 | solubility [9]: ~200 mg/mL (≈ 934 mM) | radiosensitizing efficiency relative to MIS [13]: comparable radiosensitizing activity | factor by which less neurotoxic than MIS [4]: 3-5 | Dose to Give Equivalent Neurotoxicity Relative to MIS ([4]; four-and-one-half weeks): > 3.3

O=C(Cn1ccnc1[N+](=O)[O-])NCC(O)CO (stereo not shown) [Compound 10]
E7^1 (1-electron reduction potential) [1]: -392 mV | radiosensitizing activity relative to MIS [14]: significantly inferior to MIS | LD50 [7]: > 6100 mg/kg | logP [8]: -1.85

O=C(Cn1ccnc1[N+](=O)[O-])N(CCO)CCO [SR-2555, N,N-di-(2-hydroxyethyl)-2-(2-nitro-1-imidazolyl)acetamide]
E7^1 (1-electron reduction potential) [1]: -398 mV | electron affinity relative to MIS [1]: similar | octanol:water partition coefficient [10]: 0.026 | acute toxicity relative to MIS [2]: about three to five times less | tumor/brain ratio relative to MIS [11]: an order of magnitude greater than MIS | crossing of the blood/brain barrier relative to MIS [11]: to a lower degree than does MIS | LD50 [7]: > 7700 mg/kg | logP [8]: -1.59 | solubility [9]: > 300 mg/mL | radiosensitizing efficiency relative to MIS [13]: comparable radiosensitizing activity | factor by which less neurotoxic than MIS [4]: 3-5 | Performance Relative to Controls ([4]; daily dose 3.0 mg/g, four-and-one-half weeks): 1.07 ± 0.16 | Dose to Give Equivalent Neurotoxicity Relative to MIS ([4]; four-and-one-half weeks): > 5 | Mean Peak Tumor Concentration [5]: 1.30 μ moles.g^-1 | peak tumor concentration relative to MIS ([5]; dogs, i.v. bolus, in words): considerably higher than MIS | time of peak tumor concentration relative to MIS ([5]; dogs, i.v. bolus, in words): considerably earlier than MIS | AUC ([6]; cerebrospinal fluid, AUC CSF, dogs, standardized for 0.5 mmole/kg): 170 µM·h | clearance ([6]; plasma): 4.33 mL/min/kg | AUC ([6]; plasma, AUC Plasma, dogs, standardized for 0.5 mmole/kg): 1620 µM·h | clearance rate relative to MIS ([6]; dogs, in words): considerably more rapid than for MIS | penetration into brain, CSF and peripheral nerves relative to MIS ([6]; dogs, in words): considerably lower | total exposure of neural tissues (AUC) relative to MIS ([6]; dogs, in words): significantly smaller than for MIS | AUC PNS [6, 16]: 0.75 μ moles.hr.ml^ -1 or g^-1 | AUC Brain [6, 16]: 0.51 μ moles.hr.ml^ -1 or g^-1

CC(=O)OCCNC(=O)Cn1ccnc1[N+](=O)[O-] [acetate ester of SR-2508]
peak plasma concentration of SR-2508 or SR-2555 after oral ester relative to oral parent drug [15]: significantly higher

O=[N+]([O-])c1nccn1CC(O)CO (stereo not shown) [Compound 6]
E7^1 (1-electron reduction potential) [1]: -389 mV | LD50 [7]: 3100 mg/kg | logP [8]: -0.886

O=[N+]([O-])c1nccn1CCN1CCOCC1
E7^1 (1-electron reduction potential) [1]: -390 mV | LD50 [7]: ~900 mg/kg | logP [8]: -0.0862

CCOCC(O)Cn1ccnc1[N+](=O)[O-] (stereo not shown) [Compound 2]
E7^1 (1-electron reduction potential) [1]: -391 mV | LD50 [7]: > 1100 mg/kg | logP [8]: 0.104

O=[N+]([O-])c1nccn1CC(O)CF (stereo not shown) [Compound 4]
E7^1 (1-electron reduction potential) [1]: -383 mV | LD50 [7]: ~900 mg/kg | logP [8]: -0.357
